US20070191406A1, “Heterocyclic antiviral compounds” (Roche Palo Alto LLC, priority 2006, published 2007)
Counter-ions that a name gives are not always drawn.

Target: T1, CCR5 (Homo sapiens, UniProt P51681)
T1 construct: host or cells: CEM-NKr-CCR5-Luc
Assay: CCR5-Mediated CCF Assay
Assay type: cell-based
Details: Hela-R5 cells (gp160 from R5-tropic virus, HIV-1 Tat) co-cultured 24 hrs with CEM-NKr-CCR5-Luc cells; luciferase readout
Protocol: CCF assay was performed as described before (C. Ji, J. Zhang, N. Cammack and S. Sankuratri, J. Biomol. Screen. 2006 11(6):652-663). Hela-R5 cells (express gp160 from R5-tropic virus and HIV-1 Tat) were plated in 384 well white culture plates (BD Bioscience, Palo Alto, Calif.) at 7.5×10^3 cells per well in phenol red-free Dulbecco's Modified Eagle Medium (DMEM) supplemented with 10% FBS, 1× Pen-Strep, 300 μg/mL G418, 100 μg/mL hygromycin, and 1 μg/mL Doxycycline (Dox) (BD Bioscience, Palo Alto, Calif.), using Multimek (Beckman, Fullerton, Calif.) and incubated at 37° C. overnight to induce the expression of gp160. Ten μL diluted compounds in medium containing 5% DMSO were added to the cells, followed by the addition of CEM-NKr-CCR5-Luc (obtained from NIH AIDS Research & Reference Reagents Program) that expresses CD4 and CCR5 and carries a HIV-2 long terminal repeat (LTR)-driven luciferase reporter gene at 1.5×10^4 cells/15 μL/well and incubated for 24 hrs. At the end of co-culture, 15 μL of Steady-Glo luciferase substrate was added into each well, and the cultures were sealed and gently shaken for 45 min. The luciferase activity were measured for 10 sec per well as luminescence by using 16-channel TopCount NXT (PerkinElmer, Shelton, Conn.) with 10 min dark adaptation and the readout is count per second (CPS). For the drug interaction experiments, small molecule compounds or antibodies were serially diluted in serum-free and phenol red-free RPMI containing 5% DMSO (CalBiochem, La Jolla, Calif.) and 1× Pen-Strep. Five μL each of the two diluted compound or mAb to be tested for drug-drug interactions were added to the Hela-R5 cells right before the addition of target cells.

T1 sequence (P51681 whole entry): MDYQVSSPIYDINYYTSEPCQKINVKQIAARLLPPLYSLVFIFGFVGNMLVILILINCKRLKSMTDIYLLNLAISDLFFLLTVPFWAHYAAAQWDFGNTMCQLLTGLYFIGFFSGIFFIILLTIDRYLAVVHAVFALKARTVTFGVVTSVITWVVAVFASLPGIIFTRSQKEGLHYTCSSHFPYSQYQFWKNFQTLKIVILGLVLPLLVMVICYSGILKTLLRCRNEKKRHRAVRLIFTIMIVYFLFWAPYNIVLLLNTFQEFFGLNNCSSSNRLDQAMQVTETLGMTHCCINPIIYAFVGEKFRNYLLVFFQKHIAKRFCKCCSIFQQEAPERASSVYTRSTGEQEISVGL

Row | IC50 [nM] | Structure (SMILES)
1 | 6.5 | Cc1ncnc(C)c1C(=O)N1CC2CN(CC[C@H](NC(=O)C3CCCC(=O)C3)c3cccc(F)c3)CC2C1 (stereo partly drawn) [I-24, 3-Oxo-cyclohexanecarboxylic acid [(S)-3-[5-(4,6-dimethyl-pyrimidine-5-carbonyl)-hexahydro-pyrrolo[3,4-c]pyrrol-2-yl]-1-(3-fluoro-phenyl)-propyl]-amide]
2 | 3.5 | COC(=O)[C@H]1CC[C@@H](C(=O)N(CCCN2C[C@@H]3CN(C(=O)c4c(C)ncnc4C)C[C@@H]3C2)c2ccc(C)c(Cl)c2)CC1 [I-31]
3 | 7.4 | Cc1ccnc(C)c1C(=O)N1CC2CN(CC[C@H](NC(=O)C3CCC(=O)C3)c3cccc(F)c3)CC2C1 (stereo partly drawn) [I-23, 3-Oxo-cyclopentanecarboxylic acid [(S)-3-[5-(2,4-dimethyl-pyridine-3-carbonyl)-hexahydro-pyrrolo[3,4-c]pyrrol-2-yl]-1-(3-fluoro-phenyl)-propyl]-amide]
4 | 1.7 | Cc1cccc(C)c1C(=O)N1CC2CN(CC[C@H](NC(=O)C3CCCC3C(=O)O)c3ccccc3)CC2C1 (stereo partly drawn) [I-33, 2-{(S)-3-[5-(2,6-Dimethyl-benzoyl)-hexahydro-pyrrolo[3,4-c]pyrrol-2-yl]-1-phenyl-propylcarbamoyl}-cyclopentanecarboxylic acid]
5 | 9.8 | Cc1ccc(N(CCCN2CC3CN(C(=O)c4c(C)cccc4C)CC3C2)C(=O)[C@@H]2CC[C@H](C(=O)O)C2)cc1Cl (stereo partly drawn) [I-4, (1S,3R)-3-((3-Chloro-4-methyl-phenyl)-{3-[5-(2,6-dimethyl-benzoyl)-hexahydro-pyrrolo[3,4-c]pyrrol-2-yl]-propyl}-carbamoyl)-cyclopentanecarboxylic acid, trifluoro-acetate salt]
